The record followed here is patent US20240423207A1, “PICOLINAMIDE COMPOUNDS WITH FUNGICIDAL ACTIVITY” (CORTEVA AGRISCIENCE LLC, priority 2014, published 2024).

Like-named read-outs stand apart in the source and are kept apart here. Bounds are passed on as bounds.

Assay [1] concerns Mycosphaerella graminicola; Anamorph: Septoria tritici. The assay is described as follows: Leaf Blotch of Wheat (SEPTTR) fungicidal activity on wheat seedlings. It counts as in vivo. Particulars: Zymoseptoria tritici; for pest or weed control at 100 ppm: High Volume; for pest or weed control at 121.5 g/ha: Low Volume, 121.5 g/H. A digest of the protocol:
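Compounds in acetone were diluted with nine volumes of water containing 110 ppm Triton X-100, or as EC formulations with 0.1% Trycol 5941 for track spray. They were sprayed on first-leaf Yuma wheat seedlings inoculated with S. tritici before or after treatment. Plants spent 1 day dark and 2–3 days lit at 100% RH, 20 °C. Severity (0–100%) was scored once untreated plants were fully diseased; control was computed relative to untreated plants.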

In assay [2] the test system is Puccinia triticina; Synonym: Puccinia recondita f sp. tritici. The experiment in a line: Wheat Brown Rust (PUCCRT) fungicidal activity on wheat seedlings. The format is in vivo. Particulars: for pest or weed control at 100 ppm: High Volume; for pest or weed control at 121.5 g/ha: Low Volume, 121.5 g/H. A digest of the protocol: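 Yuma wheat seedlings (first leaf emerged) were sprayed to run-off with compound in acetone/water 1:9 (110 ppm Triton X-100), and P. triticina spores were inoculated before or after treatment. Plants were kept overnight in a 22 °C dark dew room at 100% RH, then moved to a 24 °C greenhouse; % control was based on first-leaf severity (0–100%) versus untreated plants.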

Where [3] appears, read: 24 h, 1 Day Protectant, read-out: SEPTTR 1DP disease control.
Where [4] appears, read: 24 h, 1 Day Protectant, read-out: PUCCRT 1DP disease control.
Setting [5] is: 72 h, 3 Day Curative, read-out: SEPTTR 3DC disease control.
Where [6] appears, read: 72 h, 3 Day Curative, read-out: PUCCRT 3DC disease control.

For `COc1ccnc(C(=O)N[C@@H](C)C(=O)O[C@@H](C)C(O)(c2ccc(Cl)c(Cl)c2)c2ccc(Cl)c(Cl)c2)c1O` [Cmpd 127], the pest or weed control at 100 ppm in assay [1] (setting [3]) and in assay [2] (setting [4]) was less than 80% in each case.

`COc1ccnc(C(=O)N[C@@H](C)C(=O)O[C@@H](C)C(c2cccs2)c2cccs2)c1OCOC(C)=O` [Cmpd 144]: the pest or weed control at 121.5 g/ha in assay [1] (setting [3]), in assay [1] (setting [5]), in assay [2] (setting [4]) and in assay [2] (setting [6]) was less than 80% throughout.

As for `CCOc1ccnc(C(=O)N[C@@H](C)C(=O)O[C@@H](C)C(c2ccc(F)cc2)c2ccc(F)cc2)c1O` [Cmpd 111], the pest or weed control at 100 ppm in assay [1] (setting [3]) was less than 80%; in assay [1] (setting [5]), more than 80%; in assay [2] (setting [4]) it was less than 80%.

As for `COc1ccnc(C(=O)N[C@@H](C)C(=O)O[C@@H](C)C(c2ccc(C)c(F)c2)c2ccc(C)c(F)c2)c1O` [Cmpd 120], the pest or weed control at 100 ppm was more than 80% in assay [1] (setting [3]), more than 80% in assay [1] (setting [5]), more than 80% in assay [2] (setting [4]) and less than 80% in assay [2] (setting [6]).

For `C#Cc1ccc(C(c2ccc(C#C)cc2)[C@H](C)OC(=O)[C@H](C)NC(=O)c2nccc(OC)c2OCOC(C)=O)cc1` [Cmpd 197], the pest or weed control at 121.5 g/ha in assay [1] (setting [3]), in assay [1] (setting [5]), in assay [2] (setting [4]) and in assay [2] (setting [6]) was more than 80% throughout.

As for `COc1ccnc(C(=O)N[C@@H](C)C(=O)O[C@@H](C)C(c2ccc(Cl)cc2)c2ccc(Cl)cc2)c1O` [Cmpd 107], the pest or weed control at 100 ppm in assay [1] (setting [3]) was more than 80%; in assay [1] (setting [5]) it was more than 80%; in assay [2] (setting [4]), more than 80%; in assay [2] (setting [6]) it was less than 80%.

For the compound `COc1ccnc(C(=O)N[C@@H](C)C(=O)O[C@@H](C)[C@@H](c2ccccc2)c2ccc(F)cc2)c1OC(C)=O` [Cmpd 204], the pest or weed control at 121.5 g/ha in assay [1] (setting [3]), in assay [1] (setting [5]), in assay [2] (setting [4]) and in assay [2] (setting [6]) was more than 80% each time.

As for `COc1ccnc(C(=O)N[C@@H](C)C(=O)OC(C)C2c3ccccc3Oc3ccccc32)c1O` (stereo partly shown) [Cmpd 102], the pest or weed control at 100 ppm in assay [1] (setting [3]), in assay [1] (setting [5]) and in assay [2] (setting [4]) was less than 80% throughout.

`C#Cc1ccc(C(c2ccc(C#C)cc2)[C@H](C)OC(=O)[C@H](C)NC(=O)c2nccc(OC)c2O)cc1` [Cmpd 123]: the pest or weed control at 100 ppm in assay [1] (setting [3]) is less than 80%; in assay [1] (setting [5]), more than 80%; in assay [2] (setting [4]), less than 80%.

Turning to `COc1ccnc(C(=O)N[C@@H](C)C(=O)O[C@@H](C)C(c2cccc(Cl)c2)c2cccc(Cl)c2)c1OC(C)=O` [Cmpd 157], the pest or weed control at 121.5 g/ha in assay [1] (setting [3]), in assay [1] (setting [5]), in assay [2] (setting [4]) and in assay [2] (setting [6]) was more than 80% each time.

For `COc1ccnc(C(=O)N[C@@H](C)C(=O)O[C@@H](C)C(c2cccc(F)c2)c2cccc(F)c2)c1OC(C)=O` [Cmpd 156], the pest or weed control at 121.5 g/ha in assay [1] (setting [3]), in assay [1] (setting [5]), in assay [2] (setting [4]) and in assay [2] (setting [6]) was more than 80% in each case.

Consider `COc1ccnc(C(=O)N[C@@H](C)C(=O)O[C@@H](C)C(c2ccc(Br)cc2)c2ccc(Br)cc2)c1OCOC(C)=O` [Cmpd 169], for which the pest or weed control at 121.5 g/ha in assay [1] (setting [3]) is more than 80%; in assay [1] (setting [5]), more than 80%; in assay [2] (setting [4]), more than 80%; in assay [2] (setting [6]), less than 80%.

For the compound `CCOCC(=O)OCOc1c(OC)ccnc1C(=O)N[C@@H](C)C(=O)O[C@@H](C)C(c1ccc(F)cc1)c1ccc(F)cc1` [Cmpd 212], the pest or weed control at 121.5 g/ha in assay [1] (setting [3]), in assay [1] (setting [5]), in assay [2] (setting [4]) and in assay [2] (setting [6]) was more than 80% in each case.

Turning to `COc1ccc(C(c2ccc(OC)cc2)[C@H](C)OC(=O)[C@H](C)NC(=O)c2nccc(OC)c2OC(C)=O)cc1` [Cmpd 155], the pest or weed control at 121.5 g/ha in assay [1] (setting [3]), in assay [1] (setting [5]), in assay [2] (setting [4]) and in assay [2] (setting [6]) was more than 80% throughout.

With `COc1ccnc(C(=O)N[C@@H](C)C(=O)O[C@@H](C)C(c2ccc(F)c(C)c2)c2ccc(F)c(C)c2)c1OCOC(C)=O` [Cmpd 220], the pest or weed control at 121.5 g/ha in assay [1] (setting [3]) was more than 80%; in assay [1] (setting [5]), more than 80%; in assay [2] (setting [4]), more than 80%; in assay [2] (setting [6]) it was less than 80%.

As for `COc1ccnc(C(=O)N[C@@H](C)C(=O)O[C@@H](C)C(c2cccs2)c2cccs2)c1OC(C)=O` [Cmpd 143], the pest or weed control at 121.5 g/ha in assay [1] (setting [5]) and in assay [2] (setting [4]) was less than 80% in each case.

`COc1ccnc(C(=O)N[C@@H](C)C(=O)O[C@@H](C)C(c2ccc(C)cc2)c2ccc(C)cc2)c1OC(C)=O` [Cmpd 167]: the pest or weed control at 121.5 g/ha in assay [1] (setting [3]), in assay [1] (setting [5]), in assay [2] (setting [4]) and in assay [2] (setting [6]) was more than 80% in each case.

In the case of `CC[C@H](NC(=O)c1nccc(OC)c1O)C(=O)O[C@@H](C)C(c1ccc(F)cc1)c1ccc(F)cc1` [Cmpd 114], the pest or weed control at 100 ppm in assay [1] (setting [3]), in assay [1] (setting [5]), in assay [2] (setting [4]) and in assay [2] (setting [6]) was more than 80% each time.

For `COc1ccnc(C(=O)N[C@@H](C)C(=O)O[C@@H](C)C(c2ccc(-c3ccccc3)cc2)c2ccc(-c3ccccc3)cc2)c1OC(C)=O` [Cmpd 182], the pest or weed control at 121.5 g/ha in assay [1] (setting [5]) and in assay [2] (setting [6]) was less than 80% each time.

As for `COc1ccnc(C(=O)N[C@@H](C)C(=O)O[C@@H](C)C(c2ccc(F)c(F)c2)c2ccc(F)c(F)c2)c1OCOC(C)=O` [Cmpd 218], the pest or weed control at 121.5 g/ha is more than 80% in assay [1] (setting [3]), more than 80% in assay [1] (setting [5]), more than 80% in assay [2] (setting [4]) and less than 80% in assay [2] (setting [6]).

For `COCCC(=O)Oc1c(OC)ccnc1C(=O)N[C@@H](C)C(=O)O[C@@H](C)C(c1ccc(F)cc1)c1ccc(F)cc1` [Cmpd 209], the pest or weed control at 121.5 g/ha in assay [1] (setting [3]) was more than 80%; in assay [1] (setting [5]), more than 80%; in assay [2] (setting [4]), more than 80%; in assay [2] (setting [6]), less than 80%.

As for `COc1cccc(C(c2cccc(OC)c2)[C@H](C)OC(=O)[C@H](C)NC(=O)c2nccc(OC)c2O)c1` [Cmpd 118], the pest or weed control at 100 ppm in assay [1] (setting [3]) is less than 80%; in assay [1] (setting [5]) it was more than 80%; in assay [2] (setting [4]), more than 80%; in assay [2] (setting [6]), more than 80%.

For the compound `COc1ccnc(C(=O)N[C@@H](C)C(=O)O[C@@H](C)[C@@H](c2ccccc2)c2ccc(C(F)(F)F)cc2)c1O` [Cmpd 106], the pest or weed control at 100 ppm in assay [1] (setting [3]), in assay [1] (setting [5]) and in assay [2] (setting [4]) was more than 80% in each case.

Take `COc1ccnc(C(=O)N[C@@H](C)C(=O)O[C@@H](C)C(c2cccs2)c2cccs2)c1O` [Cmpd 91]: the results for the pest or weed control at 100 ppm in assay [1] (setting [3]), in assay [2] (setting [4]) and in assay [2] (setting [6]) were more than 80%, more than 80% and less than 80%, respectively.
